Earlier results as cited in the PKSmart pharmacokinetics tables (Seal et al. 2025).

assay: not given per row; by the article one of three: Lombardo et al. 2013, J Clin Pharmacol 53:178, doi 10.1177/0091270012440282; 'New Drugs at FDA', novel drug approvals for 2021 and 2022 (the article's reference 43); Yap, Li, Chen 2006, J Mol Graph Model 24:383, doi 10.1016; settings: human; in vivo

| Compound | Vd [L/kg] | clearance [L/h/kg] | half-life [h] |
| --- | --- | --- | --- |
| Cc1ccc(NC(=O)C2CCCN(C(=O)c3c(C)cccc3F)[C@H]2c2ccc(NC3CCCC3)cc2)cc1C(F)(F)F (some centres not stated) | 5.75 | 0.272 | 97.6 |
| Oc1ccc2c(c1)C13CCCC[C@@]1(O)[C@H](C2)N(CC1CCC1)CC3 |  | 2.4 |  |
| C[C@@H]1COc2c(N3CCN(C)CC3)c(F)c(C(=O)O)c3c(=O)ccn1c23 |  | 0.21 |  |
| O=C1CN2Cc3c(ccc(Cl)c3Cl)N=C2N1 |  | 0.128 |  |
| CN1CCN(c2ccc(Nc3ncc4cc5n(c4n3)C3(CCCCC3)CNC5=O)nc2)CC1 | 18.8 | 2.5 | 14 |
| CC(C)(C)NC[C@@H](O)COc1cccc2c1C[C@H](O)[C@@H](O)C2 |  | 0.176 |  |
| CC(C)NC(=O)COc1cccc(-c2nc(Nc3ccc4[nH]ncc4c3)c3ccccc3n2)c1 | 3.07 | 0.164 | 19 |
| O=c1[nH]c(=O)n([C@@H]2CCCO2)cc1F |  | 0.0588 |  |
| CN(C)CCOc1ccc(/C(=C(\CCCl)c2ccccc2)c2ccccc2)cc1 |  | 0.0726 |  |
| COC(=O)C1=C(C)NC(C)=C(C(=O)OC(C)C)[C@H]1c1cccc2nonc12 |  | 0.571 |  |
| Nc1nc2c(ncn2CCC(CO)CO)c(=O)[nH]1 |  | 0.562 |  |
| CC(C)(ON=C(C(=O)CC1C(=O)N2C(C(=O)O)=C(C[n+]3ccccc3)CS[C@H]12)c1csc(N)n1)C(=O)[O-] (some centres not stated) |  | 0.113 |  |
| O=C(O)C1C[C@H](C2CCCCC2)CN1C(=O)C[P@](=O)(O)CCCCc1ccccc1 (some centres not stated) |  | 0.0276 |  |
| Cc1cc(O)c(C(=O)NC(C(=O)NC2C(=O)N3C(C(=O)O)=C(CSc4nnnn4C)CS[C@H]23)c2ccc(O)cc2)cn1 (some centres not stated) |  | 0.0168 |  |
| COc1ccnc(C[S@@+](O)c2nc3cc(OC(F)F)ccc3[n-]2)c1OC |  | 0.154 |  |
| CN(C)CCC[C@]1(c2ccc(F)cc2)OCc2cc(C#N)ccc21 |  | 0.313 |  |
| O=c1[nH]c2ccccc2n1C1CCN(CCCC(c2ccc(F)cc2)c2ccc(F)cc2)CC1 |  | 0.246 |  |
| NC(=O)c1ncn([C@H]2O[C@H](CO)[C@@H](O)[C@@H]2O)c1N |  | 2.5 |  |
| C[C@@H](O)C1C(=O)N2C(C(=O)O)=C(S[C@@H]3CNC(C(=O)N(C)C)C3)[C@H](C)[C@@H]12 (some centres not stated) |  | 0.209 |  |
| Oc1ccc(CCNCCCCCCNCCc2ccccc2)cc1O |  | 2.16 |  |
| CCN(CC)CC#CCOC(=O)[C@](O)(c1ccccc1)C1CCCCC1 |  | 0.486 |  |
| C[C@@H](CN(C)C)CN1c2ccccc2CCc2ccccc21 |  | 0.954 |  |
| CC(=O)NC(CCS)C(=O)O (configuration not stated) |  | 0.124 |  |
| CN(C[C@H](O)CO)C(=O)c1c(I)c(NC(=O)C(CO)CO)c(I)c(C(=O)N(C)C[C@H](O)CO)c1I |  | 0.0798 |  |
| CCC1(CCC(C)C)C(=O)NC(=O)NC1=O |  | 0.021 |  |
| CC(C)(Oc1ccc(CCNC(=O)c2ccc(Cl)cc2)cc1)C(=O)O |  | 0.1 |  |
| CC(NC(CCc1ccccc1)C(=O)O)C(=O)N1C(C(=O)O)C[C@@H]2CCCC[C@@H]21 (some centres not stated) |  | 0.1 |  |

| Compound | Vd [L/kg] | clearance [L/h/kg] | half-life [h] |
| --- | --- | --- | --- |
| O=C(O)c1cc(O)c2c(c1)C(=O)c1cccc(O)c1C2=O |  | 0.0228 |  |
| COc1ccc2c3c1O[C@@H]1[C@@H](O)C=C[C@@H]4[C@H](C2)N(C)CC[C@]341 |  | 0.66 |  |
| COC(=O)C(c1ccccc1)[C@@H]1CCCCN1 (some centres not stated) |  | 0.566 |  |
| C1=C/COCc2cc(ccc2OCCN2CCCC2)Nc2nccc(n2)-c2cccc(c2)COC/1 | 3.82 | 0.0348 | 27.7 |
| CO[C@]1(NC(=O)C(C(=O)O)c2ccc(O)cc2)C(=O)N2C(C(=O)O)=C(CSc3nnnn3C)CO[C@@H]21 (some centres not stated) |  | 0.0792 |  |
| COCCCOc1ccnc(C[S@@+](O)c2nc3ccccc3[n-]2)c1C |  | 0.36 |  |
| C[C@]12C=CC(=O)C=C1CC[C@H]1[C@@H]3C[C@@H](O)[C@](O)(C(=O)CO)[C@@]3(C)C[C@@H](O)[C@@]12F |  | 0.784 |  |
| O=C(Cn1ccnc1[N+](=O)[O-])NCCO |  | 0.104 |  |
| CCC(C)C(=O)O[C@@H]1C[C@@H](O)C=C2C=C[C@@H](C)[C@H](CC[C@H](O)C[C@H](O)CC(=O)O)[C@H]21 (some centres not stated) |  | 0.51 |  |
| CCN(CC)CCC[C@@H](C)Nc1ccnc2cc(Cl)ccc12 |  | 0.425 |  |
| CC(C)(C)NC[C@@H](O)COc1nsnc1N1CCOCC1 |  | 0.486 |  |
| NC(=O)c1cc[n+](COC[n+]2ccccc2C=NO)cc1 |  | 0.192 |  |
| CC/C(=C(/c1ccccc1)c1ccc(OCCN(C)C)cc1)c1ccccc1 |  | 0.084 |  |
| CN=C1CN(O)C(c2ccccc2)=c2cc(Cl)ccc2=N1 | 0.25 |  |  |
| Cc1c(C(C)C)c(=O)n(-c2ccccc2)n1C |  | 0.66 |  |
| NC(Cc1cc(I)c(Oc2ccc(O)c(I)c2)c(I)c1)C(=O)O (configuration not stated) |  | 0.015 |  |
| CN(C)CCC(c1ccccc1)c1ccccn1 (configuration not stated) |  | 0.128 |  |
| CN[C@@]1(c2ccccc2Cl)CCCCC1=O |  | 0.978 |  |
| O=C1CC2(CCCC2)CC(=O)N1CCCCN1CCN(c2ncccn2)CC1 |  | 1.7 |  |
| CCCCC1(CCCC)CS(=O)(=O)c2ccc(N(C)C)cc2[C@@H](c2ccc(OCc3ccc(C[N+]45CCN(CC4)CC5)cc3)cc2)[C@H]1O |  |  | 1.6 |
| CC(C)NC[C@@H](O)COc1ccc(COCCOC(C)C)cc1 |  | 0.213 |  |
| O[C@@](CCN1CCCC1)(c1ccccc1)C1CCCCC1 |  | 0.0582 |  |
| NC(=O)c1cnn([C@H]2O[C@@H](CO)[C@@H](O)[C@@H]2O)n1 |  | 0.3 |  |
| COc1ccc2c3c1OC1C(=O)CC[C@@H]4[C@H](C2)N(C)CC[C@@]314 (some centres not stated) |  | 0.529 |  |
| CN1CCC[C@@H](n2nc(Cc3ccc(Cl)cc3)c3ccccc3c2=O)CC1 |  | 0.5 |  |
| O=C(CO)NCCCOc1cccc(CN2CCCCC2)c1 |  | 0.404 |  |
| CO[C@]1(NC(O)=c2sc(=C(C(N)=O)C(=O)O)s2)C(=O)N2C(C(=O)O)=C(CSc3nnnn3C)CS[C@@H]21 |  | 0.0378 |  |
